Assay results reported in patent US5247079A, “7-cyclopropyl-imidazodiazepines” (Roussel Uclaf, priority 1990, dated 1993).

Columns and labels:
benzodiazepine receptors [1] = assay: Affinity for benzodiazepine receptors, displacement of ^3 H-labelled flunitrazepam in membranes from the rear portion of the brain in rats (Test 1); conditions: 0.6×10^-9 mol of ^3 H-labelled flunitrazepam; membranes from the rear portion of rat brain; read-out: Test 1: concentration which inhibited 50% of the specific binding of ^3 H-labelled flunitrazepam (IC50)
Procedure: The affinity of the active ingredients for the benzodiazepine receptors was measured using a radioactively labelled (^3 H) compound flunitrazepam,and a modified version of the method of Squires and Braestrup (Nature, 1977, Vol. 266, p. 732). The values given in Table 2 below are the concentration (mol×10^-9) of the compound under test which inhibited 50% of the specific binding of 0.6×10^-9 mol of ^3 H-labelled flunitrazepam in preparations of membranes from the rear portion of the brain in rats (IC50 values).

benzodiazepine receptors [2] = assay: in vivo binding to benzodiazepine receptors, Goeders et al (Test 2); conditions: IP
Procedure: Measuring of in vivo binding to benzodiazepine receptors was carried out according to the method described by Goeders et al, Life Sciences (1985), Vol. 37, p. 345.

CN1Cc2c(C(=O)C3CC3)ncn2-c2ccnc(C3CC3)c2C1=O [Example 2, 7-cyclopropyl-5,6-dihydro-5-methyl-6-oxo-4H-imidazo-[1,5-a]-pyrido [3,4-f]diazepin-3-yl cyclopropyl methanone]
IC50 (benzodiazepine receptors [1]): 26 nM
Test 2 ED50 (benzodiazepine receptors [2]): 0.08 mg/kg

CN1Cc2c(C(=O)C3CC3)ncn2-c2cccc(C3CC3)c2C1=O [Example 1, 7-cyclopropyl-5,6-dihydro-5-methyl-6-oxo-4H-imidazo-[1,5-a][1,4]-benzodiazepin-3-yl cyclopropyl methanone]
IC50 (benzodiazepine receptors [1]): 36 nM
Test 2 ED50 (benzodiazepine receptors [2]): 0.15 mg/kg

CN1Cc2c(C(=O)C3CC3)ncn2-c2ccncc2C1=O [Example 3, 5,6-dihydro-5-methyl-6-oxo-4H-imidazo [1,5-a]-pyrido-[3,4-f][1,4]-diazepin-3-yl cyclopropylmethanone]
IC50 (benzodiazepine receptors [1]): 105 nM
Test 2 ED50 (benzodiazepine receptors [2]): 0.13 mg/kg
